Assay results reported in patent US8148577B2, “Polyamines useful as anti-parasitic and anti-cancer therapeutics and as lysine-specific demethylase inhibitors” (The Johns Hopkins University, priority 2005, dated 2012).
pIC50: −log10 of the molar value.

What was measured:
Assay type in all cases: cell-based, human
[1] = test system: H157 (non-small cell lung carcinoma) cells; experiment: 96 hr MTS dose response experiment in H157 cells; settings: a range means IC50 lies between the two tested concentrations
Protocol: MTS dose response experiments in H157, H82, and A549 cells following a 96 hr exposure with select compounds were performed. MTS is a standard colorimetric assay used for measuring metabolic activity in cells. MTS experiments were performed by CellTiter 96® AQueuos One Solution Cell Proliferation Assay from Promega Corporation. Briefly, the cells were seeded at 3000 cells/well on a 96 well tissue culture plate containing 100 ul of medium/well and allowed to attach overnight. The medium was then aspirated and replaced with 100 ul of fresh medium containing the appropriate concentration of the compound being tested and incubated for 96 hrs at 37° C. and 5% CO2. Compounds are routinely tested at concentrations ranging from 0.1 micromolar to 50 micromolar. Wells not containing the test compound were present and used as a control. Following treatment, 20 ul of MTS reagent was added to each well and incubated at 37° C. for 1.5 hrs. The absorbance of each well was then measured at 490 nm and used to determine the metabolic activity of the cells in the presence of the test compound, relative to the control. IC50 values for the test compounds were extracted based on the results.
Note that the results for a 72 hr exposure in addition to the 96 hr exposure are shown for compound 49-TDW-29C in the H157 cells. […] FIG. 1 depicts the results of a 96 hr MTS dose response experiments for compound 46-TDW-23c in H157, A549, H82 and Beas2B cells. FIG. 2 depicts the results of a 96 hr MTS dose response experiments for compound 49-TDW-9 in H157, A549, H82 and Beas2B cells. FIG. 3 depicts the results of a 96 hr MTS dose response experiments for compound 42-TDW-21c in H157, A549, H82 and Beas2B cells. FIG. 4 depicts the results of a 96 hr MTS dose response experiments for compound 46-TDW-19c in H157, A549, H82 and Beas2B cells. FIG. 5 depicts the results of a 96 hr MTS dose response experiments for compound 49-TDW-17c in H157, A549, H82 and Beas2B cells. FIG. 6 depicts the results of a 96 hr MTS dose response experiments for compound 40-TDW-37 in H157, A549, H82 and Beas2B cells. FIG. 7 depicts the results of a 96 hr MTS dose response experiments for compound 42-TDW-4 in H157, A549, H82 and Beas2B cells. FIG. 8 depicts the results of a 96 hr MTS dose response experiments for compound 49-TDW-29c in H157, A549, H82 and Beas2B cells. FIG. 9 depicts the results of a 96 hr MTS dose response experiments for compound 49-TDW-32c in H157, A549, H82 and Beas2B cells. FIG. 10 depicts the results of a 96 hr MTS dose response experiments for compound 46-TDW-35c in H157, A549, H82 and Beas2B cells. FIG. 11 depicts the results of a 96 hr MTS dose response experiments for compound 39-TDW-3 in H157, A549, and H82 cells. FIG. 12 depicts the results of a 96 hr MTS dose response experiments for compound 39-TDW-12c in […], and A549 cells. FIG. 13 depicts the results of a 96 hr MTS dose response experiments for compound 39-TDW-20c in H157, and H82 cells. FIG. 14 depicts the results of a 96 hr MTS dose response experiments for compounds 39-TDw-47c and 39-TDW-43 in H157 cells. FIG. 15 depicts the results of a 96 hr MTS dose response experiments for compounds 42-TDW-9, 42-TDW-4c/6, 40-TDW-35, 42-TDW-38 and BENSpm in H157 cells. FIG. 16 depicts the results of a 96 hr MTS dose response experiments for compounds 46-TDW-34c, 42-TDW-12, 40-TDW-48, 46-TDW-44c and BENSpm in H157 cells. FIG. 17 depicts the results of a 96 hr MTS dose response experiments for compounds 42-TDW-20c, 46-TDW-22, 46-TDW-39, 49-TDW-29c and BENSpm in H157 cells. FIG. 18 depicts the results of a 96 hr MTS dose response experiments for compounds 39-TDW-43, 42-TDW-48c, 46-TDW-9, 46-TDW-23c and BENSpm in H157 cells. FIG. 19 depicts the results of a 96 hr MTS dose response experiments for compounds 42-TDW-35c, 46-TDW-44 and BENSpm in H157 cells.

[2] = test system: H157 (non-small cell lung carcinoma) cells; experiment: Polyamine levels in H157 cells following treatment; settings: 10 uM, 24 hr; for Polyamine Level: inc = increased, dec = decrease, N/C = no change; for Polyamine Level, Spm: spermine (Spm)
Protocol: (§1) Putrescine, spermidine, and spermine polyamine levels in H157 and H82 cells following exposure to select compounds were performed. Polyamine levels were determined using the precolumn dansylation labeling, reverse-phase high-pressure liquid chromatography method as described by Kabra et al., J. Chromotography, 380:19 (1986). The results are show in Tables 6 and 11 for H157 and H82 cells respectively. The compound identifier, treatment concentration, observed polyamine level, and exposure time are listed in columns 1, 2, 3, and 4 respectively. Polyamine levels are reported as increased (inc), decrease (dec), or no change (N/C). In some case the specific levels of putrescine, spermidine, and/or spermine are listed.

H82 cells = experiment: Polyamine levels in H82 cells following treatment; settings: 10 uM, 24 hr
Protocol: as §1

[3] = Homo sapiens, NCI-H157, 96 hr exposure

Compound	pIC50 [1, 3]	further results
c1cc2ccc3cccc4c(CCCCNCCCNCCCNCCCNCCCCc5cc6cccc7ccc8cccc5c8c76)cc(c1)c2c34 [40-TDW-26c]	4.30 to 5.00	
CCC(CC)CNCCCNCCCNCCCNCC(CC)CC [40-TDW-28]		pIC50 ([1]; 96 hr exposure): 4.30 to 5.00
Cc1c(CNCCCNCCCNCCCNCc2cccc(-c3ccccc3)c2C)cccc1-c1ccccc1 [40-TDW-48]		pIC50 ([1]; 96 hr exposure): 5.30 to 6.00
c1ccc(-c2ccccc2CNCCCCNCCCNCc2ccccc2-c2ccccc2)cc1 [42-TDW-35c]		pIC50 ([1]; 96 hr exposure): 5.30 to 6.00
CCNCCCNCCCCNCCC(c1ccccc1)c1ccccc1 [42-TDW-40c]	5.00 to 5.30	
CC(CCNCCCNCCC(C)NCc1cc(F)c(F)cc1F)NCc1cc(F)c(F)cc1F (stereo not shown) [44-DHEJ-5C]	< 4.51	
Fc1cc(F)c(CNCCCNCCCNCCCNCc2cc(F)c(F)cc2F)cc1F [44-DHEJ-10C]	< 4.54	
O=C(CCc1nc2ccccc2[nH]1)NCCCNCCCNCCCNC(=O)CCc1nc2ccccc2[nH]1 [44-DHEJ-38]	4.66	
O=C(NCCCNCCCNCCCNC(=O)c1nc2ccccc2[nH]1)c1nc2ccccc2[nH]1 [44-DHEJ-40C]	< 4.58	
C#CC(=O)NCCCNCCCNCCCNC(=O)C#C [44-DHEJ-41]		pIC50 ([1]; 96 hr exposure): 4.45 to 5.15
CCNCCCNCCCCCNCCCNCC [44-DHEJ-48C]	< 4.30	
CCNCCCNCCCCCNCCCN [44-DHEJ-49]	5.30 to 6.00	
CCC(CC)CNCCCCNCCCNCC(CC)CC [46-TDW-12]	< 4.30	
NCCCCCCNCCCCCCNCCCc1nc2ccccc2[nH]1 [50-DHEJ-3C]	< 4.30	
COc1cc(C(C)(C)C)c(C(C)(C)C)cc1CNC(C)CCNCCCNCCC(C)NCc1cc(C(C)(C)C)c(C(C)(C)C)cc1OC (stereo not shown) [51-DHEJ-8]	< 4.30	
CC(CCNCCCCCCCNCCC(C)NCC(F)(F)F)NCC(F)(F)F (stereo not shown) [51-DHEJ-18]	4.30 to 5.00	
CCCCNC(C)CCNCCCCCCCNCCC(C)NCC (stereo not shown) [51-DHEJ-49C]	< 4.30	
CCNCCCNCCCCCNCCCNCC(C)CC (stereo not shown) [51-DHEJ-A]	4.30 to 5.00	
CCNCCCCCNCCCNCCCNCC [51-DHEJ-B]	< 4.30	
CCNCCCNCCCNCCCCCN [51-DHEJ-C]	< 4.30	
CCNCCCNCCCNCCC(C)N (stereo not shown) [55-DHEJ-7C]	< 4.30	
CCNCCCNCCCCC(C)NCCCNCC (stereo not shown) [55-DHEJ-24C]	< 4.30	
CC(N)CCNCCCNCc1ccc(-c2ccccc2)cc1 (stereo not shown) [55-DHEJ-26]	< 4.30	
CCNCCCN(CCCNCC)CCCNCC [55-DHEJ-31C]	< 4.30	
CC(CCNCCCNCCC(C)NCC1CC1)NCC1CC1 (stereo not shown) [55-DHEJ-35C]	4.30 to 5.00	
CCNCCCNCCCNCCC(C)NCC1CC1 (stereo not shown) [55-DHEJ-37C]	< 4.30	
CNC(=N)NCCCNCCCNCCCNC(=N)NC [B179-1]	4.30 to 5.00	

Compound	pIC50 [1, 3]	further results
CNC(=N)NCCCNCCCCCCCNCCCNC(=N)NC [B181]	5.00 to 5.30	
C/N=C(\NC)NCCCNCCCNCCCN/C(=N/C)NC [B182]	5.00 to 5.30	
N=C(NCCCNCCCNCCCNC(=N)Nc1ccccc1)Nc1ccccc1 [B188-2]	5.00 to 5.30	
N=C(NCCCNCCCCCCCNCCCNC(=N)Nc1ccccc1)Nc1ccccc1 [B205′-1]	4.30	
CCNCCCNCCCNCCCNCC [BENSpm, reference compound]		Polyamine Level [2]: N/C
C1CCCC(CNCCCNCCCNCCCNCC2CC2)CC1 [CPCHENSpm]		Polyamine Level [2]: slight dec; Polyamine Level, Spm [2]: inc; Polyamine Level (H82 cells): slight inc, and N/C
CCNCCCNCCCNCCCNC(C)CC (stereo not shown) [DG-52-27C]	6.00 to 6.30	
CCNCCCNCCCNCCCNC(C)C [DG-52-28]	6.00	
CC(C)CNCCCNCCCNCCCNCC(C)C [DG-52-29C]	< 4.30	
CC(C)=CCNCCCNCCCNCCCNCC=C(C)C [SV-53-18C2]		pIC50 ([1]; 96 hr exposure): 4.30 to 5.00
C1CCC(CNCCCNCC2CCCC(CNCCCNCC3CCCCC3)C2)CC1 (stereo not shown) [UNS-31-7A]		Polyamine Level [2]: slight dec; Polyamine Level (H82 cells): slight dec
NC1CCC(NCCCNCC2CC2)C1 (stereo not shown) [UNS-31-21c]		Polyamine Level [2]: dec; Polyamine Level, Spm [2]: same; Polyamine Level (H82 cells): slight inc
N=C(NCCCNCCCCNCCCNC(=N)NCCC(c1ccccc1)c1ccccc1)NCCC(c1ccccc1)c1ccccc1 [XBI-54-8B]	< 4.30	
N=C(NCCCNCCCCNCCCNC(=N)NCC(c1ccccc1)c1ccccc1)NCC(c1ccccc1)c1ccccc1 [XBI-54-9B]	< 4.30	
N=C(NCCCNCCCCCCCNCCCNC(=N)NC(=N)NCC(c1ccccc1)c1ccccc1)NC(=N)NCC(c1ccccc1)c1ccccc1 [XBI-54-11C]	4.30 to 5.00	
N=C(NCCCNCCCNCCCNC(=N)NC(=N)NCC(c1ccccc1)c1ccccc1)NC(=N)NCC(c1ccccc1)c1ccccc1 [XBI-54-12C]	4.30 to 5.00	
N=C(NCCCNCCCNCCCNC(=N)NC(=N)NCCC(c1ccccc1)c1ccccc1)NC(=N)NCCC(c1ccccc1)c1ccccc1 [XBI-54-12D]	4.30 to 5.00	
N=C(NCCCNCCCCCCCNCCCNC(=N)NC(=N)NCCC(c1ccccc1)c1ccccc1)NC(=N)NCCC(c1ccccc1)c1ccccc1 [XBI-54-13B]	4.30 to 5.00	
N=C(NCCCNCCCCNCCCNC(=N)NC(=N)NCCC(c1ccccc1)c1ccccc1)NC(=N)NCCC(c1ccccc1)c1ccccc1 [XBI-54-13D]	4.30 to 5.00	
N=C(NCCCNCCCCNCCCNC(=N)NC(=N)NCC(c1ccccc1)c1ccccc1)NC(=N)NCC(c1ccccc1)c1ccccc1 [XBI-54-14B]	4.30 to 5.00	
NCCCCCNCCCNCCCNCCCCN [YZ33035]	< 5.00	
NCCCCCNCCCNCCCNCCCCCN [YZ33041]	< 5.00	
CCNCCCNCCCNCCCCN [YZ33046]	< 5.00	
CCNCCCNCCCNCCCCNCC1CC1 [YZ33049]	~6.00	
CCCCNCCCCNCCCCNCCCNCC [YZ33049c]	5.00 to 6.00	
CCNCCCCNCCCNCCCNCC [YZ33050c]	~6.00	
